# Tests used:
# recombinant LRRK2 kinase = molecular target: T1, recombinant LRRK2 kinase (Homo sapiens, UniProt Q5S007); assay: LRRK2 kinase inhibition (Kinase-Glo luminescence); format: biochemical; details: IC50 grade; 25 μmol/L ATP, LRRKtide, 30° C. 2 hours; read-out: Enzyme activity LRRK2
# T1 construct: purchased Signal Chem, Richmond, BC, Canada
# Experimental: Upon completion of the reaction, an equal amount of Kinase-Glo (Promega, Madison, Wis.) solution was added thereto, followed by reaction for 40 minutes. A detection solution was added thereto, followed by further reaction at room temperature for 30 minutes. Then, IC50 of kinase was calculated by measuring the amount of luciferase using a microplate ELISA reader (Bio-Tek).
# [1] = molecular target: T2, kinases of the scanMAX Kinase assay panel (Homo sapiens, UniProt Q8IVH8); assay: Kinase selectivity, DiscoverX scanMAX Kinase assay panel (% control); format: binding; details: MAP4K3; 1 uM
# T2 construct: purchased DiscoverX Co. (contract measurement) scanMAX Kinase assay panel
# T2 sequence (Q8IVH8 1-894): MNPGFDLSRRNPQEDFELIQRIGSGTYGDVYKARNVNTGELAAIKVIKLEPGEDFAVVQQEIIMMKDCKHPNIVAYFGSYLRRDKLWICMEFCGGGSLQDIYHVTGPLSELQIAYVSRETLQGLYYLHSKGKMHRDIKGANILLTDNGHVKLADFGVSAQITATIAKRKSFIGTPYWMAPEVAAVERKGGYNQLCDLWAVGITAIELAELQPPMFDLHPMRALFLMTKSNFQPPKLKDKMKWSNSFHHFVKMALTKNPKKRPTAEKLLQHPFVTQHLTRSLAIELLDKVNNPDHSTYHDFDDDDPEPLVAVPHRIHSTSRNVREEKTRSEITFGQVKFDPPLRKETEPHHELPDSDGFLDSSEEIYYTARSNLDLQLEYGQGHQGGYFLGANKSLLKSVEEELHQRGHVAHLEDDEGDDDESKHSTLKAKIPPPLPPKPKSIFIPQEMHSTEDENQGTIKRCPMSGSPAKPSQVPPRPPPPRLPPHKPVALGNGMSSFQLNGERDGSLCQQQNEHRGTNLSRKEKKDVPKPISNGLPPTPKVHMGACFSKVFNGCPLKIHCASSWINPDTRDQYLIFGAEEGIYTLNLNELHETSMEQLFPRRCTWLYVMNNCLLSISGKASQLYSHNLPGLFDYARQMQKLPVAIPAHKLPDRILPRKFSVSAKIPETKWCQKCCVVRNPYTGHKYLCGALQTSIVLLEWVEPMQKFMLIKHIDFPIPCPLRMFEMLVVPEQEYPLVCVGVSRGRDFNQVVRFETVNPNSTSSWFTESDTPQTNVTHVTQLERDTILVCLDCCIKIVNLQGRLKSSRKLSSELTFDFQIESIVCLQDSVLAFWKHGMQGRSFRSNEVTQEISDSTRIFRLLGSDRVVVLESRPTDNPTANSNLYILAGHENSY
# Experimental: (§1) The following experiment was performed to evaluate the activity of the compounds of the present invention to inhibit many enzymes.
# (§2) Particularly, the compounds of Examples 8, 64 and 104 were selected among all of those compounds of the invention. DiscoverX Co. was asked to measure the enzyme (kinase) selectivity, and the experiment was performed using scanMAX™ Kinase assay panel.
# (§3) Wherein, the concentration of the drug treated to each enzyme was 1 uM in DMSO and the control percentage (% control) was determined by the following Equation 1. (example compound−positive control)/(negative control−positive control)×100 [Equation 1]
# (§4) Herein, the positive control indicates the compound showing the % control of 0%, and the negative control indicates DMSO showing the % control of 100%. The enzyme selectivity in the present invention is defined as follows: When the % control for each enzyme is less than 35% (<35%), it is judged that the compound has the activity to the corresponding enzyme.
# [2] = molecular target: T3, kinases of the scanMAX Kinase assay panel (Homo sapiens, UniProt P36888, D835V); assay: as above; format: binding; details: FLT3(D835V); 1 uM
# T3 construct: purchased DiscoverX Co. (contract measurement) scanMAX Kinase assay panel
# T3 sequence (P36888 27-993 D835V): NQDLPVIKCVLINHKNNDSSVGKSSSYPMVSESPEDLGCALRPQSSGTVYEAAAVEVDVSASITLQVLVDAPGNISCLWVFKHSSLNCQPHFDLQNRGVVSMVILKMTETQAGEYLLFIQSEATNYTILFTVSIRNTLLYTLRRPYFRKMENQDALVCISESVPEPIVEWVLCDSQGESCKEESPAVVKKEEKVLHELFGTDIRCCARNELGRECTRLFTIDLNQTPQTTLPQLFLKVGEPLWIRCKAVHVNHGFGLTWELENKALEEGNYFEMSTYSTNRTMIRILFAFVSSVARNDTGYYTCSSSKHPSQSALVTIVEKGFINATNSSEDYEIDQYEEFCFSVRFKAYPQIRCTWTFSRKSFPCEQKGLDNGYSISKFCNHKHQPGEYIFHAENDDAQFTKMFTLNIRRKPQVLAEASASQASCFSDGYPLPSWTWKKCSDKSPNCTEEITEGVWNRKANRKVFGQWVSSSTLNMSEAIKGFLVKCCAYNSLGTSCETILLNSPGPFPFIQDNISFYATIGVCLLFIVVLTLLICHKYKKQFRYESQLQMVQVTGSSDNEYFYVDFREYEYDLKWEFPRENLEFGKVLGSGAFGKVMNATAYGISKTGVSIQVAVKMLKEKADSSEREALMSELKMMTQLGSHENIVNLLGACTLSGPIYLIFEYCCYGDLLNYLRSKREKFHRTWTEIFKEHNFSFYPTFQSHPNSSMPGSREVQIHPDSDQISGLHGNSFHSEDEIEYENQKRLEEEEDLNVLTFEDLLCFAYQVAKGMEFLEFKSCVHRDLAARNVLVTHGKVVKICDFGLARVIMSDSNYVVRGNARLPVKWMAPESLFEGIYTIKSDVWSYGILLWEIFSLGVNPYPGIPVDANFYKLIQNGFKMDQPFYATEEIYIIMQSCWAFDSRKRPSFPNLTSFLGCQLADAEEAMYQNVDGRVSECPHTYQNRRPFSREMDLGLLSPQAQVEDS
# Experimental: as §1, §2, §3, §4
# T1 sequence (Q5S007 whole entry): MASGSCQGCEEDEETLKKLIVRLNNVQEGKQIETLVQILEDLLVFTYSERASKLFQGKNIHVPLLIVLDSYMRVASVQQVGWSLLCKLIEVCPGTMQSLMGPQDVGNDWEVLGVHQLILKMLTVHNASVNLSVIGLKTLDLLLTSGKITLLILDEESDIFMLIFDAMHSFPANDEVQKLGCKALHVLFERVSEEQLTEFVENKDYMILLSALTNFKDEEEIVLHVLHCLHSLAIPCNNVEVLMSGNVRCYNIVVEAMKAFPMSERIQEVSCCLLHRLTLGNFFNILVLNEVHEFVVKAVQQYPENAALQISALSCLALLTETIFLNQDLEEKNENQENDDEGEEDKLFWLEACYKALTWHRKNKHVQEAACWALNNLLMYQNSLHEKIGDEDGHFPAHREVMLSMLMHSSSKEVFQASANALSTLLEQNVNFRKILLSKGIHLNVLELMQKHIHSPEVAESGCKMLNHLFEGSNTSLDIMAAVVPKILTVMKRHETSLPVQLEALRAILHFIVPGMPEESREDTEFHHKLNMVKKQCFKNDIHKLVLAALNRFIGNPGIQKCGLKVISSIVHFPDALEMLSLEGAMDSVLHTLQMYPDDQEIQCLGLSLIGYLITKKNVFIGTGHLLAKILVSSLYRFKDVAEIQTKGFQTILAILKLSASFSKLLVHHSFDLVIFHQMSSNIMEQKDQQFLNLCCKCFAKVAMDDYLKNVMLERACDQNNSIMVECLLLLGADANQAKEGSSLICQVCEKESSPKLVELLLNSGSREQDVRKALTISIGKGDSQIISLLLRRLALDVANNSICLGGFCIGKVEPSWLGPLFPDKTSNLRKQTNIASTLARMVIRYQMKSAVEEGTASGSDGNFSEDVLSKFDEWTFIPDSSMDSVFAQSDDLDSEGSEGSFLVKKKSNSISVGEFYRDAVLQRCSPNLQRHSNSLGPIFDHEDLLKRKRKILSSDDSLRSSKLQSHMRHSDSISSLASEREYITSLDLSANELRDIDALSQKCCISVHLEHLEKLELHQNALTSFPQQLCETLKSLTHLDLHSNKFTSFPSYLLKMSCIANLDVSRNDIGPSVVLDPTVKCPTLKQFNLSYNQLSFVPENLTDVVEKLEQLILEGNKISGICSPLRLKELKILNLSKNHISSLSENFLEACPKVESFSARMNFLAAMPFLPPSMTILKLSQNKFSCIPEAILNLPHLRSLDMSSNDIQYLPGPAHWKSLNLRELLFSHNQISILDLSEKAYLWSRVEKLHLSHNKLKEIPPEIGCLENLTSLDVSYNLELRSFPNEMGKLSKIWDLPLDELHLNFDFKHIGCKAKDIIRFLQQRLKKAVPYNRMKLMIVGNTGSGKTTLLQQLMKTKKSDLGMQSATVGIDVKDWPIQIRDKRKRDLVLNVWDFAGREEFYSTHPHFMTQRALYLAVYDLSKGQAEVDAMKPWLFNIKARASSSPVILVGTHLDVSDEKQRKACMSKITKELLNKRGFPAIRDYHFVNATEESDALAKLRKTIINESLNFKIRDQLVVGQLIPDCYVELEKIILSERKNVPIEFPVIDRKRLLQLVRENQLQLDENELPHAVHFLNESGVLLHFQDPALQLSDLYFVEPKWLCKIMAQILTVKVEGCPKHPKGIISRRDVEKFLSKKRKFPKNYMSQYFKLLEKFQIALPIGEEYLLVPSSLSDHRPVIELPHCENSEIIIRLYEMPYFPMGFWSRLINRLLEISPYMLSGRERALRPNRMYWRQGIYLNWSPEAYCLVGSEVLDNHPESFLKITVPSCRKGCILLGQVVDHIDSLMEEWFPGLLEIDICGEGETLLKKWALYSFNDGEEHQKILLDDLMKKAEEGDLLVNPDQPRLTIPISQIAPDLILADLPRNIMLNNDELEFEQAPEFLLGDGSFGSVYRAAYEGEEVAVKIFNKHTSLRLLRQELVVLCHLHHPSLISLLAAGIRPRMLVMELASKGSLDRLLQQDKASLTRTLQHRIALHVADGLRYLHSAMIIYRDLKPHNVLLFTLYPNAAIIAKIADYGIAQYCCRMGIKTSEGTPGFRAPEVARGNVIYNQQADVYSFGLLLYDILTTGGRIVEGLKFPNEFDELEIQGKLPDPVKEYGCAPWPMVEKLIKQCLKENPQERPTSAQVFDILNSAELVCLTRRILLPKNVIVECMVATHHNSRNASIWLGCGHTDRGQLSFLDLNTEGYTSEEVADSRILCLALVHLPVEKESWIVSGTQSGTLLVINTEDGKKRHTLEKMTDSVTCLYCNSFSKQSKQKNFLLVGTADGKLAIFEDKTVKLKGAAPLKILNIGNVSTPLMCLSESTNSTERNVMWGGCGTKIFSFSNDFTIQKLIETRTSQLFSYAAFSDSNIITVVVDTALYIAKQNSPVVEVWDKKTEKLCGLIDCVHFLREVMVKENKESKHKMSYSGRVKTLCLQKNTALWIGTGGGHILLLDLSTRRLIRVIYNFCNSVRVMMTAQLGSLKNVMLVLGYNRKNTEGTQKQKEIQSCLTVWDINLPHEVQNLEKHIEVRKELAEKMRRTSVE
SMILES,IC50 (recombinant LRRK2 kinase) [nM],remaining binding at 1 µM [1] [%],remaining binding at 1 µM [2] [%]
"CCNc1nc(Nc2ccc(C(=O)N3CCC(N4CCOCC4)CC3)cc2OC)nc2[nH]cc(C(F)(F)F)c12 [Example 104, (4-((4-(ethylamino)-5-(trifluoromethyl)-7H-pyrrolo[2,3-d]pyrimidine-2-yl)amino)-3-methoxyphenyl)(4-morpholinopiperidine-1-yl)methanone]",< 10,100,0
"CC1(Nc2nc(Nc3cnn([C@H]4CCN(C5COC5)C[C@@H]4F)c3Cl)nc3[nH]cc(C#N)c23)CC1 [Example 52, 2-((5-chloro-1-((3S,4S)-3-fluoro-1-(oxetane-3-yl)piperidine-4-yl)-1H-pyrazole-4-yl)amino)((1-methylcyclopropyl)amino)-7H-pyrrolo[2,3-d]pyrimidine-5-carbonitrile]",< 10,3.3,0
"CNc1nc(Nc2ccc(C(=O)N3CCOCC3)cc2OC)nc2[nH]cc(C#N)c12 [Example 1, 2-((2-methoxy-4-(morpholine-4-carbonyl)phenyl)amino)-4-(methylamino)-7H-pyrrolo[2,3-d]pyrimidine-5-carbonitrile]",< 10,97,58

# From US11208412B2 (DAEGU-GYEONGBUK MEDICAL INNOVATION FOUNDATION, priority 2017, dated 2021)
